Experimental data as given in US20240188571A1, “EMULSIFIABLE CONCENTRATE COMPOSITION AS WOOD PROTECTANT AND FOR TERMITE AND FUNGAL PATHOGENS CONTROL APPLICATIONS” (priority 2021, published 2024).
Marks after values point to notes of the source that are not given here.

Legend:
[1] = test system: termite, Odontotermes sp.; assay: Topical (direct contact toxicity) assay against termites, planar arena; format: in vivo; conditions: 25 ml/lit., after 24 hours, mean of five replications
Procedure: (§1) The formulation was evaluated under laboratory conditions following standard protocols for its contact and surface toxicity, against termite, Odontotermes sp. to simulate real field conditions. In the topical (direct contact toxicity) assay, the bio-termiticide was sprayed directly on the termites and mortality (death), repellence (moving away) or anti-feedant (non-feeding) effects were studied. This assay was carried out in simulation of curative management viz., post-infestation management. In the surface toxicity assay the surface on which the termites walk over was sprayed, termites were allowed to move on the treated surface later and mortality (death), repellence (moving a way) or anti-feedant (non-feeding) effects were studied. This assay was carried out in simulation of preventive management viz., pre-infestation management. These two methods were planned as they suffice the current needs of pre- and post-infestation termite management.
(§2) Both the topical and surface toxicity bioassays were carried out using planar arena assay method (Chouvenc et al. 20112011, Planar Arenas for Use in Laboratory Bioassay Studies of Subterranean Termites (Rhinotermitidae). Florida Entomologist, 94(4): 817-826) with minor modifications. Seven concentrations of the cedar wood oil Emulsifiable concentrate formulation, standard check Chlorpyriphos and untreated control were used in the bioassay. […]

[2] = test system: termite, Odontotermes sp.; assay: Surface toxicity assay against termites, planar arena; format: in vivo; conditions: 25 ml/lit., termites released one hour after spraying, mean of five replications
Procedure: as §1, §2

decay fungi = assay: Protection of wood from decay fungi, Marandi wood blocks kept in open space for one year; conditions: Marandi wood blocks sprayed, untreated control infested by Fusarium oxysporum
From the text: Blocks of Marandi wood of size 30×15×4 cm (L×B×W) were taken for the experiment. The emulsion of cedar wood oil emulsifiable concentrate formulation in water was sprayed on two replicates of wooden blocks using a band sprayer. No emulsion was applied on untreated control. Market sample of Propiconazole was used as standard check for comparing the effect of this botanical cedar wood oil emulsifiable concentrate formulation. The blocks after application and untreated control were kept in open space for a period of one year starting from the month of November up to the month of October to subject the blocks to winter, summer and rainy season. Observations on the wooden blocks were taken to check the infestation of fungi and damage caused by fungi.

| Structure (SMILES) | Percent Mortality [1] | Percent repellence [1] | Percent Mortality [2] | Percent repellence [2] | infestation of fungi on treated wooden blocks (decay fungi) |
| --- | --- | --- | --- | --- | --- |
| CCOP(=S)(OCC)Oc1nc(Cl)c(Cl)cc1Cl [Chlorpyriphos] | 92 (73.57)^b Percent | 0 (0.29)^e Percent | 80 (63.43)^b Percent | 4 (11.54)^e Percent | – |
| CCCC1COC(Cn2cncn2)(c2ccc(Cl)cc2Cl)O1 (centres unmarked) [Propiconazole] | – | – | – | – | No infestation of the fungi |
